From the supplement of paper PMC6045584
± gives the standard deviation of the averaged measurements.

Key:
[1] = compound: COc1cc2c(Oc3ccc(NC(=O)C4(C(=O)Nc5ccc(F)cc5)CC4)cc3F)ccnc2cc1OCCCN1CCOCC1 [FORETINIB]; assay: surviving fraction relative to DMSO-only wells; higher = less growth inhibition; details: exposure time: 5 days
How it was run: (§1)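 Viability values are CellTiter-Glo luminescence readings, given as surviving fraction against the median of DMSO-only wells. The readings were taken after 10 minutes at room temperature, following five days of continuous exposure to inhibitors at 0.5, 1, 5, 10, 50, 100, 500 and 1000 nM that began 24 hours after log-phase tumour cell lines were seeded at 250–500 cells per well in 384-well plates. Every line was screened three times and kept only if replicate Pearson r >0.7 and median Z' >0.3.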

[2] = compound: COc1cc2ncnc(Nc3ccc(F)c(Cl)c3)c2cc1NC(=O)/C=C/CN1CCCCC1; assay: as above; details: exposure time: 5 days
How it was run: as §1

| Test System | surviving fraction ([1]; 0.5 nM) | surviving fraction ([1]; 1 nM) | surviving fraction ([1]; 5 nM) | surviving fraction ([1]; 10 nM) | surviving fraction ([1]; 50 nM) | surviving fraction ([1]; 100 nM) | surviving fraction ([1]; 500 nM) | surviving fraction ([1]; 1000 nM) | surviving fraction ([2]; 0.5 nM) | surviving fraction ([2]; 1 nM) | surviving fraction ([2]; 5 nM) | surviving fraction ([2]; 10 nM) | surviving fraction ([2]; 50 nM) | surviving fraction ([2]; 100 nM) | surviving fraction ([2]; 500 nM) | surviving fraction ([2]; 1000 nM) |
| --- | --- | --- | --- | --- | --- | --- | --- | --- | --- | --- | --- | --- | --- | --- | --- | --- |
| CHLA90 AUTONOMIC GANGLIA | 0.983 ± 0.048 | 1.1 ± 0.24 | 0.977 ± 0.069 | 0.909 ± 0.045 | 0.962 ± 0.13 | 0.941 ± 0.12 | 0.62 ± 0.11 | 0.493 ± 0.12 | 1 ± 0.048 | 0.982 ± 0.085 | 0.853 ± 0.049 | 0.834 ± 0.016 | 0.818 ± 0.023 | 0.769 ± 0.048 | 0.781 ± 0.04 | 0.596 ± 0.022 |
| 143B BONE | 1.05 ± 0.046 | 1.03 ± 0.033 | 1.04 ± 0.015 | 1.02 ± 0.05 | 1.01 ± 0.0099 | 1.038 ± 0.0035 | 0.86 ± 0.015 | 0.755 ± 0.03 | 1.03 ± 0.027 | 1.006 ± 0.005 | 1.01 ± 0.067 | 1.01 ± 0.033 | 1.02 ± 0.018 | 1.01 ± 0.03 | 0.957 ± 0.016 | 0.831 ± 0.04 |
| T47D BREAST | 1.02 ± 0.032 | 1.08 ± 0.056 | 1.08 ± 0.023 | 1.08 ± 0.029 | 1.04 ± 0.025 | 1.08 ± 0.04 | 0.897 ± 0.064 | 0.898 ± 0.028 | 1.03 ± 0.044 | 1.11 ± 0.045 | 1.07 ± 0.041 | 1.04 ± 0.027 | 1.043 ± 0.0096 | 1.07 ± 0.034 | 1.05 ± 0.05 | 1.02 ± 0.046 |
| SG28 HEADNECK | 1.04 ± 0.07 | 1.15 ± 0.12 | 1.12 ± 0.077 | 0.972 ± 0.011 | 1.02 ± 0.054 | 0.941 ± 0.054 | 0.826 ± 0.023 | 0.512 ± 0.046 | 0.962 ± 0.064 | 0.924 ± 0.058 | 0.626 ± 0.026 | 0.54 ± 0.013 | 0.514 ± 0.029 | 0.494 ± 0.025 | 0.375 ± 0.037 | 0.238 ± 0.019 |
| SUM159 BREAST | 1.13 ± 0.038 | 1.12 ± 0.046 | 1.11 ± 0.038 | 1.09 ± 0.028 | 1.071 ± 0.0061 | 1.06 ± 0.018 | 1.01 ± 0.018 | 0.566 ± 0.037 | 1.08 ± 0.076 | 1.14 ± 0.16 | 1.1 ± 0.14 | 1.13 ± 0.2 | 1.06 ± 0.065 | 0.931 ± 0.14 | 1.01 ± 0.052 | 0.984 ± 0.017 |
| MDAMB134 BREAST | 0.888 ± 0.12 | 1.41 ± 0.042 | 0.916 ± 0.06 | 1.37 ± 0.026 | 0.86 ± 0.16 | 1.17 ± 0.32 | 0.939 ± 0.14 | 0.886 ± 0.033 | 0.947 ± 0.17 | 1.07 ± 0.061 | 0.944 ± 0.014 | 0.981 ± 0.14 | 1.05 ± 0.28 | 1.02 ± 0.21 | 0.795 ± 0.012 | 0.732 ± 0.013 |
| SG27 HEADNECK | 0.986 ± 0.14 | 1.12 ± 0.063 | 1.07 ± 0.11 | 1.11 ± 0.14 | 0.962 ± 0.12 | 1.02 ± 0.075 | 0.901 ± 0.11 | 0.829 ± 0.078 | 1.06 ± 0.071 | 1.16 ± 0.22 | 0.944 ± 0.14 | 0.937 ± 0.07 | 0.927 ± 0.014 | 1.01 ± 0.061 | 0.988 ± 0.015 | 0.864 ± 0.024 |
| 93VU HEADNECK | 1.21 ± 0.1 | 1.21 ± 0.048 | 1.2 ± 0.13 | 1.07 ± 0.039 | 1.04 ± 0.024 | 1.04 ± 0.025 | 0.849 ± 0.13 | 0.224 ± 0.076 | 0.834 ± 0.065 | 0.8653 ± 0.005 | 0.651 ± 0.02 | 0.541 ± 0.12 | 0.465 ± 0.016 | 0.456 ± 0.034 | 0.353 ± 0.036 | 0.267 ± 0.025 |
| HCC202 BREAST | 1.04 ± 0.11 | 1.33 ± 0.14 | 1.24 ± 0.37 | 1.02 ± 0.033 | 1.48 ± 0.2 | 1.34 ± 0.33 | 1.18 ± 0.15 | 0.995 ± 0.23 | 1.1 ± 0.1 | 1.06 ± 0.15 | 0.723 ± 0.13 | 0.757 ± 0.14 | 0.373 ± 0.041 | 0.297 ± 0.067 | 0.131 ± 0.026 | 0.0933 ± 0.023 |
| S68 BREAST | 0.862 ± 0.072 | 0.875 ± 0.33 | 1.35 ± 0.14 | 0.916 ± 0.15 | 1.05 ± 0.082 | 0.78 ± 0.059 | 0.313 ± 0.025 | 0.331 ± 0.077 | 0.768 ± 0.15 | 1.01 ± 0.15 | 1.03 ± 0.27 | 0.764 ± 0.12 | 0.701 ± 0.085 | 0.667 ± 0.14 | 0.603 ± 0.033 | 0.256 ± 0.024 |
| PCI30 HEADNECK | 1.07 ± 0.09 | 1.1 ± 0.043 | 1.1 ± 0.019 | 1.11 ± 0.045 | 1.04 ± 0.028 | 1.04 ± 0.072 | 0.806 ± 0.056 | 0.484 ± 0.0076 | 0.985 ± 0.029 | 1.01 ± 0.087 | 0.649 ± 0.07 | 0.551 ± 0.078 | 0.393 ± 0.01 | 0.392 ± 0.013 | 0.194 ± 0.035 | 0.0737 ± 0.0085 |
| MCF7 BREAST | 0.938 ± 0.026 | 0.958 ± 0.056 | 0.972 ± 0.031 | 0.993 ± 0.057 | 0.908 ± 0.052 | 0.959 ± 0.0097 | 0.669 ± 0.055 | 0.701 ± 0.066 | 0.908 ± 0.061 | 0.938 ± 0.022 | 0.922 ± 0.08 | 0.971 ± 0.096 | 1.01 ± 0.043 | 0.966 ± 0.034 | 1.01 ± 0.012 | 0.927 ± 0.07 |
| HOSMNG BONE | 0.915 ± 0.11 | 0.904 ± 0.074 | 0.895 ± 0.066 | 0.855 ± 0.036 | 0.55 ± 0.039 | 0.381 ± 0.014 | 0.128 ± 0.0089 | 0.065 ± 0.0044 | 0.909 ± 0.07 | 0.924 ± 0.11 | 0.958 ± 0.063 | 0.917 ± 0.086 | 1.033 ± 0.0083 | 1.02 ± 0.046 | 0.97 ± 0.1 | 0.953 ± 0.017 |
| U2OS BONE | 1.03 ± 0.018 | 1 ± 0.021 | 1.04 ± 0.034 | 1.01 ± 0.037 | 1.03 ± 0.059 | 0.958 ± 0.03 | 0.558 ± 0.028 | 0.344 ± 0.024 | 1.03 ± 0.023 | 1.03 ± 0.025 | 1.02 ± 0.025 | 1.01 ± 0.038 | 1.04 ± 0.015 | 1.06 ± 0.027 | 0.906 ± 0.033 | 0.798 ± 0.034 |
| CADOES1 SOFT TISSUE | 0.986 ± 0.23 | 0.887 ± 0.17 | 0.988 ± 0.25 | 0.876 ± 0.043 | 0.947 ± 0.02 | 0.795 ± 0.1 | 0.109 ± 0.011 | 0.088 ± 0.0062 | 0.985 ± 0.058 | 0.938 ± 0.14 | 1.03 ± 0.16 | 0.873 ± 0.046 | 0.884 ± 0.07 | 0.896 ± 0.047 | 0.891 ± 0.018 | 0.7 ± 0.031 |
| SG32 HEADNECK | 1.15 ± 0.13 | 1.24 ± 0.36 | 1.27 ± 0.19 | 1.22 ± 0.041 | 1.03 ± 0.1 | 1.17 ± 0.26 | 0.374 ± 0.011 | 0.264 ± 0.0095 | 1.24 ± 0.15 | 0.962 ± 0.098 | 0.846 ± 0.018 | 0.958 ± 0.046 | 0.819 ± 0.071 | 0.865 ± 0.029 | 0.695 ± 0.061 | 0.301 ± 0.034 |
| HT1080 SOFT TISSUE | 1.01 ± 0.026 | 1.06 ± 0.037 | 1 ± 0.017 | 1.01 ± 0.033 | 1.04 ± 0.048 | 0.996 ± 0.017 | 0.779 ± 0.025 | 0.3927 ± 0.0032 | 1.02 ± 0.015 | 1.01 ± 0.023 | 0.964 ± 0.0098 | 0.984 ± 0.026 | 1.03 ± 0.015 | 0.981 ± 0.034 | 0.9 ± 0.04 | 0.751 ± 0.045 |
| CME SYNOVIAL | 1.39 ± 0.037 | 1.39 ± 0.12 | 1.41 ± 0.074 | 1.28 ± 0.14 | 1.27 ± 0.08 | 1.18 ± 0.12 | 0.887 ± 0.1 | 0.285 ± 0.048 | 1.2 ± 0.09 | 1.4 ± 0.17 | 1.29 ± 0.12 | 1.39 ± 0.15 | 1.42 ± 0.18 | 1.37 ± 0.11 | 1.26 ± 0.098 | 1.27 ± 0.12 |
| HCC1954 BREAST | 0.975 ± 0.071 | 1.16 ± 0.25 | 1.09 ± 0.08 | 1.14 ± 0.1 | 0.965 ± 0.14 | 0.903 ± 0.05 | 0.6953 ± 0.006 | 0.418 ± 0.068 | 1.11 ± 0.075 | 0.808 ± 0.064 | 0.756 ± 0.028 | 0.722 ± 0.084 | 0.508 ± 0.0074 | 0.471 ± 0.0092 | 0.283 ± 0.013 | 0.155 ± 0.018 |
| MDAMB361 BREAST | 0.794 ± 0.035 | 0.877 ± 0.15 | 0.803 ± 0.05 | 1.18 ± 0.11 | 0.9 ± 0.15 | 0.798 ± 0.021 | 0.918 ± 0.1 | 0.918 ± 0.073 | 0.896 ± 0.049 | 0.909 ± 0.035 | 0.922 ± 0.052 | 0.833 ± 0.03 | 0.738 ± 0.017 | 0.745 ± 0.055 | 0.586 ± 0.019 | 0.543 ± 0.046 |
